{
  "source": "PubChem BioAssay AID1963448",
  "about": "(Molecular Pharmacology Branch, DTP, NCI, 2024)",
  "tested_on": "616215-338-R-J1-PDC complex spheroid growth, % test/control",
  "experiment": "Anticancer human tumor 616215-338-R-J1-PDC patient-derived colon adenocarcinoma cell line growth inhibition [Asc]",
  "conditions": "for IC50: curve of first compound; for viability, T/C: stronger effect = lower value",
  "in_short": "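Tumor cells were grown as multicellular spheroids with stromal HUVEC and mesenchymal stem cells and treated singly or in combination. Concentrations fell in half-log steps from the clinical Cmax, or from 10 microM where none was known.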",
  "data": [
    {"compound": "C=CC(=O)N1CCN(c2nc(=O)n(-c3c(C)ccnc3C(C)C)c3nc(-c4c(O)cccc4F)c(F)cc23)C(C)C1", "note": "(centres undefined) + CNC(C)C(=O)NC1CN(S(=O)(=O)c2cccc(S(=O)(=O)N3CCC4CCC(C(=O)NC(c5ccccc5)c5ccccc5)N4C(=O)C(NC(=O)C(C)NC)C3)c2)CCC2CCC(C(=O)NC(c3ccccc3)c3ccccc3)N2C1=O;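 also: spheroids exposed to agents for seven days before readout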;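 as to viability, T/C: 100% = DMSO vehicle control viability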", "values": [
      {"measurement": "IC50", "setting": "second compound 0.00316 µM", "value": 4.24, "unit": "µM"},
      {"measurement": "IC50", "setting": "second compound 0.01 µM", "value": 2.68, "unit": "µM"},
      {"measurement": "IC50", "setting": "second compound 0.0316 µM", "value": 4.24, "unit": "µM"},
      {"measurement": "IC50", "setting": "second compound 0.1 µM", "value": 3.32, "unit": "µM"},
      {"measurement": "IC50", "setting": "second compound 0.316 µM", "value": 2.22, "unit": "µM"},
      {"measurement": "IC50", "setting": "second compound 1 µM", "value": 3.25, "unit": "µM"},
      {"measurement": "viability, T/C", "setting": "second compound 0.00316 µM, first compound 0.0316 µM", "value": 109, "unit": "%"},
      {"measurement": "viability, T/C", "setting": "second compound 0.00316 µM, first compound 0.1 µM", "value": 99.2, "unit": "%"},
      {"measurement": "viability, T/C", "setting": "second compound 0.00316 µM, first compound 0.316 µM", "value": 88, "unit": "%"},
      {"measurement": "viability, T/C", "setting": "second compound 0.00316 µM, first compound 1 µM", "value": 78.2, "unit": "%"},
      {"measurement": "viability, T/C", "setting": "second compound 0.00316 µM, first compound 3.16 µM", "value": 58, "unit": "%"},
      {"measurement": "viability, T/C", "setting": "second compound 0.00316 µM, first compound 10 µM", "value": 29.4, "unit": "%"},
      {"measurement": "viability, T/C", "setting": "second compound 0.01 µM, first compound 0.0316 µM", "value": 110, "unit": "%"},
      {"measurement": "viability, T/C", "setting": "second compound 0.01 µM, first compound 0.1 µM", "value": 93.2, "unit": "%"},
      {"measurement": "viability, T/C", "setting": "second compound 0.01 µM, first compound 0.316 µM", "value": 95.5, "unit": "%"},
      {"measurement": "viability, T/C", "setting": "second compound 0.01 µM, first compound 1 µM", "value": 66.7, "unit": "%"},
      {"measurement": "viability, T/C", "setting": "second compound 0.01 µM, first compound 3.16 µM", "value": 47.3, "unit": "%"},
      {"measurement": "viability, T/C", "setting": "second compound 0.01 µM, first compound 10 µM", "value": 27.8, "unit": "%"},
      {"measurement": "viability, T/C", "setting": "second compound 0.0316 µM, first compound 0.0316 µM", "value": 106, "unit": "%"},
      {"measurement": "viability, T/C", "setting": "second compound 0.0316 µM, first compound 0.1 µM", "value": 101, "unit": "%"},
      {"measurement": "viability, T/C", "setting": "second compound 0.0316 µM, first compound 0.316 µM", "value": 96, "unit": "%"},
      {"measurement": "viability, T/C", "setting": "second compound 0.0316 µM, first compound 1 µM", "value": 76.9, "unit": "%"},
      {"measurement": "viability, T/C", "setting": "second compound 0.0316 µM, first compound 3.16 µM", "value": 58.1, "unit": "%"},
      {"measurement": "viability, T/C", "setting": "second compound 0.0316 µM, first compound 10 µM", "value": 29.2, "unit": "%"},
      {"measurement": "viability, T/C", "setting": "second compound 0.1 µM, first compound 0.0316 µM", "value": 95.8, "unit": "%"},
      {"measurement": "viability, T/C", "setting": "second compound 0.1 µM, first compound 0.1 µM", "value": 101, "unit": "%"},
      {"measurement": "viability, T/C", "setting": "second compound 0.1 µM, first compound 0.316 µM", "value": 81.5, "unit": "%"},
      {"measurement": "viability, T/C", "setting": "second compound 0.1 µM, first compound 1 µM", "value": 81.1, "unit": "%"},
      {"measurement": "viability, T/C", "setting": "second compound 0.1 µM, first compound 3.16 µM", "value": 48.6, "unit": "%"},
      {"measurement": "viability, T/C", "setting": "second compound 0.1 µM, first compound 10 µM", "value": 28.8, "unit": "%"},
      {"measurement": "viability, T/C", "setting": "second compound 0.316 µM, first compound 0.0316 µM", "value": 92.6, "unit": "%"},
      {"measurement": "viability, T/C", "setting": "second compound 0.316 µM, first compound 0.1 µM", "value": 105, "unit": "%"},
      {"measurement": "viability, T/C", "setting": "second compound 0.316 µM, first compound 0.316 µM", "value": 104, "unit": "%"},
      {"measurement": "viability, T/C", "setting": "second compound 0.316 µM, first compound 1 µM", "value": 61.8, "unit": "%"},
      {"measurement": "viability, T/C", "setting": "second compound 0.316 µM, first compound 3.16 µM", "value": 53, "unit": "%"},
      {"measurement": "viability, T/C", "setting": "second compound 0.316 µM, first compound 10 µM", "value": 36.4, "unit": "%"},
      {"measurement": "viability, T/C", "setting": "second compound 1 µM, first compound 0.0316 µM", "value": 104, "unit": "%"},
      {"measurement": "viability, T/C", "setting": "second compound 1 µM, first compound 0.1 µM", "value": 100, "unit": "%"},
      {"measurement": "viability, T/C", "setting": "second compound 1 µM, first compound 0.316 µM", "value": 100, "unit": "%"},
      {"measurement": "viability, T/C", "setting": "second compound 1 µM, first compound 1 µM", "value": 68.6, "unit": "%"},
      {"measurement": "viability, T/C", "setting": "second compound 1 µM, first compound 3.16 µM", "value": 54.6, "unit": "%"},
      {"measurement": "viability, T/C", "setting": "second compound 1 µM, first compound 10 µM", "value": 28.9, "unit": "%"}
    ]},
    {"compound": "CCN1C(C(=O)NC23CCC(C(=O)O)(CC2)CC3)C(c2cccc(Cl)c2F)C2(C(=O)Nc3cc(Cl)ccc32)C12CCCCC2", "note": "(centres undefined) + CNC(C)C(=O)NC1CN(S(=O)(=O)c2cccc(S(=O)(=O)N3CCC4CCC(C(=O)NC(c5ccccc5)c5ccccc5)N4C(=O)C(NC(=O)C(C)NC)C3)c2)CCC2CCC(C(=O)NC(c3ccccc3)c3ccccc3)N2C1=O", "values": [
      {"measurement": "IC50", "setting": "second compound 0.00316 µM", "value": 0.0874, "unit": "µM"},
      {"measurement": "IC50", "setting": "second compound 0.01 µM", "value": 0.0865, "unit": "µM"},
      {"measurement": "IC50", "setting": "second compound 0.0316 µM", "value": 0.175, "unit": "µM"},
      {"measurement": "IC50", "setting": "second compound 0.1 µM", "value": 0.0931, "unit": "µM"},
      {"measurement": "IC50", "setting": "second compound 0.316 µM", "value": 0.0806, "unit": "µM"},
      {"measurement": "IC50", "setting": "second compound 1 µM", "value": 0.0882, "unit": "µM"},
      {"measurement": "viability, T/C", "setting": "second compound 0.00316 µM, first compound 0.00949 µM", "value": 109, "unit": "%"},
      {"measurement": "viability, T/C", "setting": "second compound 0.00316 µM, first compound 0.03 µM", "value": 108, "unit": "%"},
      {"measurement": "viability, T/C", "setting": "second compound 0.00316 µM, first compound 0.0949 µM", "value": 41.7, "unit": "%"},
      {"measurement": "viability, T/C", "setting": "second compound 0.00316 µM, first compound 0.3 µM", "value": 45.3, "unit": "%"},
      {"measurement": "viability, T/C", "setting": "second compound 0.00316 µM, first compound 0.949 µM", "value": 49.6, "unit": "%"},
      {"measurement": "viability, T/C", "setting": "second compound 0.00316 µM, first compound 3 µM", "value": 45.4, "unit": "%"},
      {"measurement": "viability, T/C", "setting": "second compound 0.01 µM, first compound 0.00949 µM", "value": 108, "unit": "%"},
      {"measurement": "viability, T/C", "setting": "second compound 0.01 µM, first compound 0.03 µM", "value": 104, "unit": "%"},
      {"measurement": "viability, T/C", "setting": "second compound 0.01 µM, first compound 0.0949 µM", "value": 41.6, "unit": "%"},
      {"measurement": "viability, T/C", "setting": "second compound 0.01 µM, first compound 0.3 µM", "value": 44, "unit": "%"},
      {"measurement": "viability, T/C", "setting": "second compound 0.01 µM, first compound 0.949 µM", "value": 54.3, "unit": "%"},
      {"measurement": "viability, T/C", "setting": "second compound 0.01 µM, first compound 3 µM", "value": 41.1, "unit": "%"},
      {"measurement": "viability, T/C", "setting": "second compound 0.0316 µM, first compound 0.00949 µM", "value": 99.2, "unit": "%"},
      {"measurement": "viability, T/C", "setting": "second compound 0.0316 µM, first compound 0.03 µM", "value": 101, "unit": "%"},
      {"measurement": "viability, T/C", "setting": "second compound 0.0316 µM, first compound 0.0949 µM", "value": 53.5, "unit": "%"},
      {"measurement": "viability, T/C", "setting": "second compound 0.0316 µM, first compound 0.3 µM", "value": 50, "unit": "%"},
      {"measurement": "viability, T/C", "setting": "second compound 0.0316 µM, first compound 0.949 µM", "value": 48.7, "unit": "%"},
      {"measurement": "viability, T/C", "setting": "second compound 0.0316 µM, first compound 3 µM", "value": 42, "unit": "%"},
      {"measurement": "viability, T/C", "setting": "second compound 0.1 µM, first compound 0.00949 µM", "value": 111, "unit": "%"},
      {"measurement": "viability, T/C", "setting": "second compound 0.1 µM, first compound 0.03 µM", "value": 78.2, "unit": "%"},
      {"measurement": "viability, T/C", "setting": "second compound 0.1 µM, first compound 0.0949 µM", "value": 51.1, "unit": "%"},
      {"measurement": "viability, T/C", "setting": "second compound 0.1 µM, first compound 0.3 µM", "value": 36.3, "unit": "%"},
      {"measurement": "viability, T/C", "setting": "second compound 0.1 µM, first compound 0.949 µM", "value": 52.8, "unit": "%"},
      {"measurement": "viability, T/C", "setting": "second compound 0.1 µM, first compound 3 µM", "value": 41.1, "unit": "%"},
      {"measurement": "viability, T/C", "setting": "second compound 0.316 µM, first compound 0.00949 µM", "value": 97.5, "unit": "%"},
      {"measurement": "viability, T/C", "setting": "second compound 0.316 µM, first compound 0.03 µM", "value": 89.5, "unit": "%"},
      {"measurement": "viability, T/C", "setting": "second compound 0.316 µM, first compound 0.0949 µM", "value": 43.4, "unit": "%"},
      {"measurement": "viability, T/C", "setting": "second compound 0.316 µM, first compound 0.3 µM", "value": 41.2, "unit": "%"},
      {"measurement": "viability, T/C", "setting": "second compound 0.316 µM, first compound 0.949 µM", "value": 44.9, "unit": "%"},
      {"measurement": "viability, T/C", "setting": "second compound 0.316 µM, first compound 3 µM", "value": 44.1, "unit": "%"},
      {"measurement": "viability, T/C", "setting": "second compound 1 µM, first compound 0.00949 µM", "value": 89.8, "unit": "%"},
      {"measurement": "viability, T/C", "setting": "second compound 1 µM, first compound 0.03 µM", "value": 83.4, "unit": "%"},
      {"measurement": "viability, T/C", "setting": "second compound 1 µM, first compound 0.0949 µM", "value": 47.5, "unit": "%"},
      {"measurement": "viability, T/C", "setting": "second compound 1 µM, first compound 0.3 µM", "value": 43.5, "unit": "%"},
      {"measurement": "viability, T/C", "setting": "second compound 1 µM, first compound 0.949 µM", "value": 60.1, "unit": "%"},
      {"measurement": "viability, T/C", "setting": "second compound 1 µM, first compound 3 µM", "value": 39.5, "unit": "%"}
    ]}
  ]
}
